≈ marks a conversion by molar mass, not a printed value. Read-outs that look alike come from different tables or passages of the source.
What was measured:
E. faecalis VSE 1 = test: MIC, broth microdilution, vancomycin-sensitive E. faecalis (VSE 1); format: cell-based, Enterococcus faecalis; conditions: for MIC: read-out: MIC; for MIC-fold improvement vs. vancomycin: VSE 1
Procedure, shortened: (§1)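 Assayed by broth microdilution under CLSI antimicrobial testing rules. One case paired the analog or control drug with vancomycin at a 10 μM final concentration; water and inoculum-free broth were controls.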

E. faecalis VRE 6 = test: MIC, broth microdilution, vancomycin-resistant E. faecalis VRE 6 (VanA); format: cell-based, Enterococcus faecalis; conditions: for MIC: read-out: MIC; for MIC-fold improvement vs. vancomycin: VRE 6
Procedure, shortened: as §1

E. faecalis VRE 53 = test: MIC, broth microdilution, vancomycin-resistant E. faecalis VRE 53 (VanA); format: cell-based, Enterococcus faecalis; conditions: for MIC: read-out: MIC; for MIC-fold improvement vs. vancomycin: VRE 53
Procedure, shortened: as §1

E. faecalis VRE 29 = test: MIC, broth microdilution, vancomycin-resistant E. faecalis VRE 29 (VanA); format: cell-based, Enterococcus faecalis; conditions: for MIC: Enterococcus faecalis VRE 29 (vancomycin-resistant), read-out: MIC; for MIC-fold improvement vs. vancomycin: VRE 29, ratio of MIC of vancomycin and MIC of analogue
Procedure, shortened: as §1

E. faecalis VRE 37 = test: MIC, broth microdilution, vancomycin-resistant E. faecalis VRE 37 (VanA); format: cell-based, Enterococcus faecalis; conditions: for MIC: Enterococcus faecalis VRE 37 (vancomycin-resistant), read-out: MIC
Procedure, shortened: as §1

[1] = test system: Murine leukemia (L1210) cells; test: Cytostatic activity, L1210 cell proliferation; format: cell-based; conditions: mean ± SD of three experiments; highest concentration tested 250 µM; 2 days; read-out: Toxicity (IC50) L1210
Procedure, shortened: (§2)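 Suspensions (300,000–500,000 cells/mL) combined with equal volumes of diluted compound; 37°C; L1210 2 d / CEM 3 d / HeLa 4 d; counted by Coulter counter; IC50 vs untreated wells.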

[2] = test system: human T-lymphocyte (CEM) cells; test: Cytostatic activity, CEM cell proliferation; format: cell-based; conditions: mean ± SD of three experiments; highest concentration tested 250 µM; 3 days; read-out: Toxicity (IC50) CEM
Procedure, shortened: as §2

[3] = test system: human cervix carcinoma (HeLa) cells; test: Cytostatic activity, HeLa cell proliferation; format: cell-based; conditions: mean ± SD of three experiments; highest concentration tested 250 µM; 4 days; read-out: Toxicity (IC50) HeLa
Procedure, shortened: as §2

[4] = test system: L1210, CEM and HeLa cell lines; test: Cytostatic activity, average or summary over L1210, CEM and HeLa; format: cell-based
Procedure, shortened: as §2

[5] = test system: S. aureus VSSA (ATCC 6538); test: MIC, broth microdilution, vancomycin-sensitive S. aureus (VSSA/MSSA, ATCC 6538); format: cell-based, Staphylococcus aureus; conditions: for MIC: Staphylococcus aureus VSSA, read-out: MIC; for MIC-fold improvement vs. vancomycin: VSSA, ratio of MIC of vancomycin and MIC of analogue
Procedure, shortened: as §1

S. aureus VISA/HIP5827 = test: MIC, broth microdilution, vancomycin-intermediate S. aureus VISA HIP5827; format: cell-based, Staphylococcus aureus; conditions: for MIC: Staphylococcus aureus VISA/HIP5827, read-out: MIC; for MIC-fold improvement vs. vancomycin: VISA/HIP5827, ratio of MIC of vancomycin and MIC of analogue
Procedure, shortened: as §1

S. aureus VRSA = test: MIC, broth microdilution, vancomycin-resistant S. aureus (VRSA); format: cell-based, Staphylococcus aureus; conditions: for MIC: Staphylococcus aureus VRSA, read-out: MIC; for MIC-fold improvement vs. vancomycin: VRSA, ratio of MIC of vancomycin and MIC of analogue
Procedure, shortened: as §1

MRSA KS89 = test: MIC, broth microdilution, MRSA KS89; format: cell-based, Staphylococcus aureus; conditions: for MIC-fold improvement vs. vancomycin: MRSA KS8, ratio of MIC of vancomycin and MIC of analogue; for MIC: Staphylococcus aureus MRSA KS8, read-out: MIC
Procedure, shortened: as §1

33 clinical VRE isolates = test: MIC against a set of 33 clinical VRE isolates (range, MIC50, TI); format: cell-based, Enterococcus faecalis
Protocol: (§3) The minimum inhibitory concentration (MIC) was determined using the broth microdilution method according to the antimicrobial susceptibility testing standards of the clinical and laboratory standards institute ([Clinical and Laboratory Standards Institute [CLSI], 2012]). Ultrapure water and non-inoculated broth were used as controls. In one case, a final concentration of 10 μM vancomycin was included with the vancomycin analog or control antibiotic.

[6] = test system: 24 clinical MRSA isolates; test: MIC against a set of 24 clinical MRSA isolates (range, MIC50, TI); format: cell-based, Staphylococcus aureus
Protocol: as §3

VE 148 (VanB) = test: MIC, VanB-type VRE strain VE 148; format: cell-based, Enterococcus; conditions: VE 148, VanB; read-out: MIC
Protocol: as §3

VE 149 (VanB) = test: MIC, VanB-type VRE strain VE 149; format: cell-based, Enterococcus; conditions: VE 149, VanB; read-out: MIC
Protocol: as §3

VE 150 (VanB) = test: MIC, VanB-type VRE strain VE 150; format: cell-based, Enterococcus; conditions: VE 150, VanB; read-out: MIC
Protocol: as §3

VE 152 (VanB) = test: MIC, VanB-type VRE strain VE 152; format: cell-based, Enterococcus; conditions: VE 152, VanB; read-out: MIC
Protocol: as §3

VE 157 (VanB) = test: MIC, VanB-type VRE strain VE 157; format: cell-based, Enterococcus; conditions: VE 157, VanB; read-out: MIC
Protocol: as §3

VE 82 (VanC1) = test: MIC, VanC1-type VRE strain VE 82; format: cell-based, Enterococcus gallinarum; conditions: VE 82, VanC1; read-out: MIC
Protocol: as §3

VRE39 = test: MIC in the absence and presence of 10 µM vancomycin (vanA induction); format: cell-based, Enterococcus faecalis
Protocol: as §3

MRSA = test: Minimum bactericidal concentration against MRSA; format: cell-based, Staphylococcus aureus
Protocol: Plates were incubated overnight at 37°C and colony growth was inspected.

B. subtilis PSB3 = test: MIC, broth microdilution, B. subtilis PSB3; format: cell-based, Bacillus subtilis
Protocol: as §3

E. coli XL-1 blue MRF' = test: MIC, broth microdilution, E. coli XL-1 blue MRF'; format: cell-based, Escherichia coli; conditions: E. coli XL-1 blue MRF'
Protocol: as §3

MRSA KS2 = test: MIC, broth microdilution, MRSA KS2; format: cell-based, Staphylococcus aureus
Procedure, shortened: as §1

MRSA KS6 = test: MIC, broth microdilution, MRSA KS6; format: cell-based, Staphylococcus aureus
Procedure, shortened: as §1

MRSA KS1 = test: MIC, broth microdilution, MRSA KS1; format: cell-based, Staphylococcus aureus
Procedure, shortened: as §1

[7] = test system: Clostridium difficile ATJ ribotype 014/20; test: MIC, plate drop assay, C. difficile ATJ ribotype 014/20; format: cell-based; conditions: C. difficile ATJ ribotype 014/20
Procedure, shortened: (§4)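 Twofold dilution series of test compounds were spotted onto C. difficile lawns in 0.4% BHI agar containing added calcium and magnesium salts. After overnight anaerobic incubation at 37°C, growth inhibition was scored by spot clearing; triplicate runs, ultrapure water negative control.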

[8] = test system: Clostridium difficile AIU ribotype 027; test: MIC, plate drop assay, C. difficile AIU ribotype 027; format: cell-based; conditions: C. difficile AIU ribotype 027
Procedure, shortened: as §4

[9] = Enterococcus faecalis VSE 1 (vancomycin-sensitive)
[10] = ratio of MIC of vancomycin and MIC of analogue
[11] = Enterococcus faecalis VRE 6 (vancomycin-resistant)
[12] = Enterococcus faecalis VRE 53 (vancomycin-resistant)
[13] = average of L1210, CEM and HeLa, read-out: Toxicity (IC50) Average

Structure (SMILES)	MIC (E. faecalis VSE 1; [9])	MIC-fold improvement vs. vancomycin (E. faecalis VSE 1; [10])	MIC (E. faecalis VRE 6; [11])	MIC-fold improvement vs. vancomycin (E. faecalis VRE 6; [10])	MIC (E. faecalis VRE 53; [12])	MIC-fold improvement vs. vancomycin (E. faecalis VRE 53; [10])	MIC (E. faecalis VRE 29)	MIC-fold improvement vs. vancomycin (E. faecalis VRE 29)	MIC (E. faecalis VRE 37)	IC50 [1]	IC50 [2]	IC50 [3]	IC50 [4, 13]	MIC [5]	MIC-fold improvement vs. vancomycin [5]	MIC (S. aureus VISA/HIP5827)	MIC-fold improvement vs. vancomycin (S. aureus VISA/HIP5827)	MIC (S. aureus VRSA)	MIC-fold improvement vs. vancomycin (S. aureus VRSA)	MIC-fold improvement vs. vancomycin (MRSA KS89)	further results
CNC(CC(C)C)C(=O)NC1C(=O)NC(CC(N)=O)C(=O)NC2C(=O)NC3C(=O)NC(C(=O)NC(C(=O)NCC(=O)Nc4ccc(-c5ccccc5)cc4)c4cc(O)cc(O)c4-c4cc3ccc4O)C(O)c3ccc(c(Cl)c3)Oc3cc2cc(c3OC2OC(CO)C(O)C(O)C2OC2CC(C)(N)C(O)C(C)O2)Oc2ccc(cc2Cl)C1O (centres unmarked) [Vanc-83]	0.39 µM (≈ 0.646 µg/mL)	4	0.78 µM (≈ 1.29 µg/mL)	256	1.56 µM (≈ 2.59 µg/mL)	256	1.56 µM (≈ 2.59 µg/mL)	256	1.56 µM (≈ 2.59 µg/mL)	179 ± 41 µM	37 ± 6 µM	105 ± 27 µM	107 µM	0.20 µM (≈ 0.332 µg/mL)	4	1.56 µM (≈ 2.59 µg/mL)	4	0.39 µM (≈ 0.646 µg/mL)	256	4	MIC-fold improvement vs. vancomycin (E. faecalis VRE 37; VRE 37, ratio of MIC of vancomycin and MIC of analogue): 256; IC50 ([4]; average IC50 used for TI in Table S5, >250 entered as 250, read-out: IC50): 107 µM; MIC (MRSA KS89): 0.20 µM (≈ 0.332 µg/mL); MIC Range (33 clinical VRE isolates; 33 clinical VRE isolates): 0.78 to 3.13 µM; TI (IC50/MIC50) (33 clinical VRE isolates; in vitro therapeutic index, VRE): 69; MIC Range ([6]; 24 clinical MRSA isolates): 0.10 to 0.78 µM; TI (IC50/MIC50) ([6]; in vitro therapeutic index, MRSA): 535; MIC50 ([6]; median MIC, 24 clinical MRSA isolates, read-out: MIC50): 0.20 µM (≈ 0.332 µg/mL); MIC (VE 148 (VanB)): 1.56 µM (≈ 2.59 µg/mL); MIC (VE 149 (VanB)): 1.56 µM (≈ 2.59 µg/mL); MIC (VE 150 (VanB)): 1.56 µM (≈ 2.59 µg/mL); MIC (VE 152 (VanB)): 1.56 µM (≈ 2.59 µg/mL); MIC (VE 157 (VanB)): 1.56 µM (≈ 2.59 µg/mL); MIC (VE 82 (VanC1)): 0.78 µM (≈ 1.29 µg/mL); MIC (VRE39; VRE39, 0 µM vancomycin): 1.56 µM; MIC (VRE39; VRE39, 10 μM vancomycin added): 3.13 µM; MBC relative to MIC (MRSA): MBC equaling their MIC values
C#Cc1ccc(NC(=O)CNC(=O)C2NC(=O)C3NC(=O)C(NC(=O)C4NC(=O)C(CC(N)=O)NC(=O)C(NC(=O)C(CC(C)C)NC)C(O)c5ccc(c(Cl)c5)Oc5cc4cc(c5OC4OC(CO)C(O)C(O)C4OC4CC(C)(N)C(O)C(C)O4)Oc4ccc(cc4Cl)C3O)c3ccc(O)c(c3)-c3c(O)cc(O)cc32)cc1 (centres unmarked) [Vanc-N]	0.10 µM (≈ 0.161 µg/mL)	16	3.13 µM (≈ 5.03 µg/mL)	64	6.25 µM (≈ 10 µg/mL)	64	6.25 µM (≈ 10 µg/mL)	64	25 µM (≈ 40.1 µg/mL)	> 250 µM	> 250 µM	> 250 µM	> 250 µM	0.10 µM (≈ 0.161 µg/mL)	8	0.78 µM (≈ 1.25 µg/mL)	8	1.56 µM (≈ 2.5 µg/mL)	64	2	MIC (B. subtilis PSB3): 0.20 µM (≈ 0.321 µg/mL); MICvanc/MICi (B. subtilis PSB3; [10]): 2; MIC (E. coli XL-1 blue MRF'): 50 µM (≈ 80.3 µg/mL); MICvanc/MICi (E. coli XL-1 blue MRF'; [10]): 2; MICvanc/MICi (E. faecalis VSE 1; E. faecalis VSE 1, ratio of MIC of vancomycin and MIC of analogue): 16; MIC (E. faecalis VSE 1; E. faecalis VSE 1): 0.10 µM (≈ 0.161 µg/mL); MICvanc/MICi (E. faecalis VRE 6; E. faecalis VRE 6, ratio of MIC of vancomycin and MIC of analogue): 64; MIC (E. faecalis VRE 6; E. faecalis VRE 6): 3.13 µM (≈ 5.03 µg/mL); MICvanc/MICi (E. faecalis VRE 53; E. faecalis VRE 53, ratio of MIC of vancomycin and MIC of analogue): 64; MIC (E. faecalis VRE 53; E. faecalis VRE 53): 6.25 µM (≈ 10 µg/mL); IC50 ([4]; summary over the three cell lines, read-out: IC50 (L1210, CEM, HeLa), depending on the cell line used): > 250 µM; MIC-fold improvement vs. vancomycin (MRSA KS2; MRSA KS2, ratio of MIC of vancomycin and MIC of analogue): 2; MIC (MRSA KS2; Staphylococcus aureus MRSA KS2, read-out: MIC): 0.39 µM (≈ 0.626 µg/mL); MIC-fold improvement vs. vancomycin (MRSA KS6; MRSA KS6, ratio of MIC of vancomycin and MIC of analogue): 2; MIC (MRSA KS6; Staphylococcus aureus MRSA KS6, read-out: MIC): 0.39 µM (≈ 0.626 µg/mL); MIC (MRSA KS89): 0.39 µM (≈ 0.626 µg/mL); MIC-fold improvement vs. vancomycin (MRSA KS1; MRSA KS1, ratio of MIC of vancomycin and MIC of analogue): 4; MIC (MRSA KS1; Staphylococcus aureus MRSA KS1, read-out: MIC): 0.20 µM (≈ 0.321 µg/mL); MIC-fold improvement vs. vancomycin [7]: 5.6; MIC-fold improvement vs. vancomycin [8]: 29

Source: article PMC6001238, “Iterative Chemical Engineering of Vancomycin Leads to Novel Vancomycin Analogs With a High in Vitro Therapeutic Index” (Frontiers in Microbiology, 2018)
